Source: the supplement of paper PMC10307832

Assays:
Test in all cases: relative viability (nuclei count vs DMSO), 5 days (fraction); higher = more cells survive
[1] = compound: C1COCCN1C2=NC(=NC3=C2OC4=C3C=CC=N4)C5=CC(=CC=C5)NC(=O)C6=CN=C(C=C6)N + Cc1cc(Nc2cc(N3CCN(C)CC3)nc(Sc3ccc(NC(=O)C4CC4)cc3)n2)n[nH]1 [Tozasertib] (partner 0.1 µM)
Method in brief: (§1)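 Nuclei were stained with Hoechst during a one-step fixation (final 0.05% Triton X-100, 1% formaldehyde, 1 ug/ml Hoechst) carried out 5 days after dosing, then counted on 4× images. The cells, lung cancer lines in 1536-well plates, had been dosed by pin tool the day after seeding with one drug alone or a fixed anchor-drug dose plus five library-drug doses (not always all listed) in √10 steps. Relative viability is the nuclei count in treated wells divided by that in vehicle wells, and each value is the median of duplicate plates.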

[2] = compound: C1COCCN1C2=NC(=NC3=C2OC4=C3C=CC=N4)C5=CC(=CC=C5)NC(=O)C6=CN=C(C=C6)N + O=C(CCCCCCC(=O)Nc1ccccc1)NO [Vorinostat] (partner 1 µM)
Method in brief: as §1

SGI-1776 + Linsitinib = compound: CN1CCC(CNc2ccc3ncc(-c4cccc(OC(F)(F)F)c4)n3n2)CC1 [SGI-1776] + C[C@]1(O)C[C@@H](c2nc(-c3ccc4ccc(-c5ccccc5)nc4c3)c3c(N)nccn32)C1 [Linsitinib] (partner 1 µM)
Method in brief: as §1

Entinostat + Phenformin = compound: Nc1ccccc1NC(=O)c1ccc(CNC(=O)OCc2cccnc2)cc1 [Entinostat] + N=C(N)NC(=N)NCCc1ccccc1 [Phenformin] (partner 250 µM)
Method in brief: as §1

Cell Line	relative viability ([1]; first compound 0.02 µM)	relative viability ([1]; first compound 0.06325 µM)	relative viability ([1]; first compound 0.2 µM)	relative viability ([1]; first compound 0.6325 µM)	relative viability ([1]; first compound 2 µM)	relative viability ([2]; first compound 0.02 µM)	relative viability ([2]; first compound 0.06325 µM)	relative viability ([2]; first compound 0.2 µM)	relative viability ([2]; first compound 0.6325 µM)	relative viability ([2]; first compound 2 µM)	relative viability (SGI-1776 + Linsitinib; first compound 0.08 µM)	relative viability (SGI-1776 + Linsitinib; first compound 0.8 µM)	relative viability (SGI-1776 + Linsitinib; first compound 2.53 µM)	relative viability (SGI-1776 + Linsitinib; first compound 8 µM)	relative viability (Entinostat + Phenformin; first compound 0.02 µM)	relative viability (Entinostat + Phenformin; first compound 0.06325 µM)	relative viability (Entinostat + Phenformin; first compound 0.2 µM)	relative viability (Entinostat + Phenformin; first compound 0.6325 µM)	relative viability (Entinostat + Phenformin; first compound 2 µM)
NCI-H1651	0.685	0.76	0.416	0.522	0.338	0.382	0.595	0.563	0.537	0.529	1.01	0.925	0.938	0.566	0.326	0.371	0.453	0.335	0.185
NCI-H1666	0.614	0.615	0.588	0.513	0.501	1.07	1.09	0.966	0.736	0.865	0.856	0.83	0.772	0.493	0.56	0.609	0.581	0.497	0.443
NCI-H1734	0.272	0.254	0.257	0.229	0.186	0.815	0.858	0.612	0.706	0.522	0.919	0.895	0.935	0.749	0.439	0.509	0.488	0.342	0.315
NCI-H1755	0.606	0.572	0.468	0.414	0.473	0.7	0.868	0.698	0.635	0.562	0.988	0.969	0.996	0.896	0.605	0.613	0.569	0.513	0.349
NCI-H1793	0.314	0.305	0.262	0.29	0.279	0.61	0.846	0.571	0.59	0.574	1.06	0.895	1	0.794	0.439	0.4	0.368	0.302	0.316
NCI-H1915	0.439	0.492	0.392	0.408	0.264	0.539	0.572	0.536	0.536	0.397	1.11	1.12	1.13	1.1	0.375	0.346	0.372	0.261	0.256
NCI-H1944	0.259	0.263	0.228	0.209	0.173	0.533	0.65	0.5	0.485	0.477	1.15	1.31	1.21	1.05	0.193	0.182	0.168	0.13	0.142
NCI-H1975	0.893	0.699	0.315	0.225	0.215	0.675	0.689	0.631	0.624	0.389	0.946	0.906	0.909	0.803	0.376	0.348	0.342	0.238	0.19
NCI-H1993	0.551	0.569	0.524	0.567	0.538	0.831	0.701	0.634	0.723	0.563	0.755	0.76	0.78	0.645	0.489	0.579	0.495	0.536	0.563
NCI-H2009	0.8	0.749	0.726	0.655	0.433	0.697	0.82	0.73	0.7	0.739	1.22	1.16	1.3	1.09	0.466	0.499	0.468	0.418	0.304
NCI-H2023	0.371	0.369	0.158	0.142	0.13	0.602	0.747	0.506	0.623	0.319	0.727	0.77	0.666	0.444	0.355	0.407	0.327	0.162	0.0942
NCI-H2085	0.667	0.826	0.691	0.456	0.463	0.736	0.802	0.75	0.704	0.706	0.994	0.957	0.902	0.757	0.716	0.774	0.706	0.461	0.375
NCI-H2087	0.249	0.265	0.202	0.258	0.209	0.611	0.911	0.842	0.724	0.199	0.913	0.863	1.09	1.12	0.425	0.474	0.416	0.319	0.168
NCI-H2126	0.868	0.895	0.767	0.702	0.518	0.707	0.941	0.758	0.786	0.582	0.731	0.731	0.684	0.695	0.53	0.512	0.535	0.452	0.363
NCI-H2228	0.227	0.204	0.193	0.213	0.186	0.469	0.743	0.464	0.529	0.39	0.881	0.541	0.557	0.276	0.285	0.334	0.395	0.22	0.207
NCI-H2347	0.513	0.711	0.42	0.544	0.387	0.582	0.494	0.645	0.528	0.559	0.995	0.992	0.966	0.865	0.378	0.243	0.234	0.181	0.151
NCI-H2405	0.762	0.75	0.715	0.73	0.607	1.07	1.07	1.03	0.921	0.645	0.899	0.873	0.854	0.588	0.392	0.462	0.414	0.352	0.358
NCI-H3122	0.404	0.47	0.341	0.364	0.289	0.924	1.09	0.946	1.06	0.639	1.04	0.983	1.16	1.08	0.411	0.395	0.389	0.321	0.22
PC-3 [JPC-3]	0.914	0.932	0.85	0.893	0.507	0.729	0.678	–	0.662	0.638	0.999	0.974	1.02	0.917	0.449	0.482	0.523	0.449	0.448
PC-14	0.593	0.651	0.566	0.486	0.307	0.784	0.816	0.648	0.603	0.362	1.06	0.965	0.938	0.802	0.761	0.61	0.662	0.309	0.076
RERF-LC-KJ	0.594	0.577	0.35	0.327	0.326	0.696	0.782	0.653	0.603	0.598	0.909	0.877	0.9	0.711	0.433	0.437	0.422	0.339	0.312
SK-LU-1	0.348	0.287	0.266	0.284	0.314	0.741	0.742	0.736	0.647	0.482	1.33	1.24	1.06	0.633	0.579	0.693	0.497	0.398	0.362
SK-MES-1	0.957	1.01	0.824	0.851	0.362	1.12	1.22	1.09	1.03	0.72	1.09	1.09	1.14	1.03	0.614	0.699	0.721	0.657	0.504
SW 1573	0.207	0.159	0.175	0.188	0.152	0.737	0.953	0.705	0.552	0.451	0.94	0.777	0.765	0.741	0.38	0.483	0.41	0.45	0.382
